Legend:
U937 cells = test: DNA analysis by flow cytometry of U937 cells after apoptosis induction; assay type: cell-based; conditions: 40 μM 7β hydroxycholesterol
Method: U937 cells are grown in a humidified 5% CO2 atmosphere at 37° C., using RPMI 1640 medium with Glutamax-I, supplemented with 10% heat-inactivated fetal calf serum, 1 mM sodium pyruvate, non-essential amino acids and gentamicin icin at 5 μg/mL Cells are usually plated at an initial conentration of 1.10^5/ml. Apoptosis induction is achieved by 40 μM 7β hydroxycholesterol- or 5 μg/ml actinomycin D-treatment of U937 cells at 37° C. during 8 to 24 hours. Cells have to be seeded at 3 to 4.10^5 cells per ml 6 h before treatment. Cell supernatant is obtained by centrifugation of treated cells at 500 g during 7 min and CaCl2 is added to a final concentration of 10 mM before addition of 200 μl/well of supernatant. For each experiment, a control without 7β hydroxycholesterol or actinomycin D has to be performed and culture medium containing 10% fetal calf serum should also be tested. It has to be emphasized that the content of microparticles of 10% fetal calf serum was low, probably due to removal of most of the cell fragments at sterilizing ultrafiltration. The amount of captured microparticles is determined using the prothrombinase assay.
The Prothrombinase Activity is Correlated with DNA Analysis by Flow Cytometry (Table 2)

[1] = Storage stability of biotinylated annexin V; assay type: physicochemical
Method: After 90 min at 25° C., the reaction is stopped by adding IM Lysine/HCl to a final concentration of 10 mM. The biotinylated annexin V is finally dialysed overnight at 4° C. against Storage buffer.

| Compound | % of hypodiploid DNA (U937 cells; 0 h treatment) [%] | % of hypodiploid DNA (U937 cells; 8 h treatment) [%] | % of hypodiploid DNA (U937 cells; 10 h treatment) [%] | % of hypodiploid DNA (U937 cells; 12 h treatment) [%] | % of hypodiploid DNA (U937 cells; 20 h treatment) [%] | % of hypodiploid DNA (U937 cells; 22 h treatment) [%] | storage stability ([1]; stored below 0° C.) | storage stability (anti-phospholipid potential) ([1]; stored for months at −80° C.) |
| --- | --- | --- | --- | --- | --- | --- | --- | --- |
| CC(C)CCC[C@@H](C)[C@H]1CC[C@H]2[C@@H]3[C@@H](O)C=C4C[C@@H](O)CC[C@]4(C)[C@H]3CC[C@]12C [7β-hydroxycholesterol] | 2.75 | 9.43 | 12.58 | 18.31 | 35.03 | 41.54 |  |  |
| annexin-V^Bi: Human placenta annexin V biotinylated with biotin-X-OSu, insolubilized onto streptavidin-coated plates as capture receptor |  |  |  |  |  |  | stable for weeks | without detectable loss of anti-phospholipid potential |

Reference: patent US7005271B1, “Method for the determination of the prethrombotic state” (priority 1994, dated 2006)
